Earlier results as cited in patent US20220249978A1, “NOVEL SOLVENT FOR EXTRACTING, SOLUBILISING AND/OR FORMULATING VOLATILE AND NON-VOLATILE COMPOUNDS OF INTEREST IN ANIMAL NUTRITION AND HEALTH, PREPARATION METHOD AND USES THEREOF” (ID4TECH, priority 2019, published 2022).

Tests used:
Candida strains = conditions: in vitro and in vivo
[1] = system: Gram+ but also Gram− bacteria such as Staphylococcus, Streptococcus, Gardnerella, Haemophilus but also Listeria monocytogenes
Bacillus anthracis = conditions: blocks its growth without killing the cells
[2] = system: pro-inflammatory cytokines (IL-8 and TNF-α)

Question: Which “growth of Candida strains” value (Candida strains) does the source give for `CCCCCCCCCCCC(=O)OCC(O)CO` (stereo not shown) [glycerol monolaurate] here?
Answer: inhibits the growth

Question: What about the “growth of Gram+ and Gram− bacteria” value [1] of the same compound?
Answer: acts against the growth

Question: And the “action against Bacillus anthracis” value (Bacillus anthracis)?
Answer: bacteriostatic agent

Question: What about the “quantity of pro-inflammatory cytokines (IL-8 and TNF-α)” value [2] of the same compound?
Answer: significant decrease
